Among the data in patent US20200078468A1, “NEUROTENSIN RECEPTOR BINDING CONJUGATES AND FORMULATIONS THEREOF” (priority 2016, published 2020) are IC50 values, retold here.

In the assay the test system is SW48 (human colon cancer cells). The assay can be described thus: inhibition of SW48 cell proliferation (CellTiter Glo). Type of assay: cell-based. As to conditions: 72 hrs, read-out: SW-48 proliferation IC50. The procedure: Conjugates were assessed in an in vitro assay evaluating inhibition of cell proliferation. SW48 (human colon cancer cells, ATCC®), cells were plated in 96 well, flat-bottomed plates (Costar) at a concentration of 5,000 cells/well. Cells were then incubated at 37° C. with 5% CO2 for 24 hrs. After 24 hrs, cells were treated with 0.01% DMSO or compound. Compounds were added at a starting dose of 10 μM and three fold serial dilutions were done for a total often points. Following compound addition, cells were incubated at 37° C. with 5% CO2 for 72 hrs. Proliferation was measured by CellTiter Glo reagent using the standard protocol (Promega) and a Glomax multi+detection system (Promega). Percent proliferation inhibition was calculated using the following formula: % inhibition=(control−treatment)/control*100. Control is defined as vehicle alone. IC50 curves were generated using the nonlinear regression analysis (four parameter) with GraphPad Prism 6.
Conjugates are assessed for receptor-dependent cytotoxicity by the difference between an NTSR1-targeting conjugate, and the corresponding conjugate with the same linker moiety and active agent where the NTSR1-targeting domain has been scrambled.
For orientation: Cellular ATP, detected with luciferase, serves as a proxy for viable cell number.

Read-outs that look alike come from different tables or passages of the source. Numbered stars: 1 amine (or outer) side, 2 acyl side, 3 side chain; on linkers, the order of the positions; unused ones are H or OH. Bridge positions count the residues as written; N and C are the ends. Square brackets hold non-standard residues; d marks the D form. Peptide text beside a SMILES is read from it. I, II: the chains in the order shown. * marks the point of attachment. SN38(20-O) = CCc1c2c(nc3ccc(O)cc13)-c1cc3c(c(=O)n1C2)COC(=O)[C@@]3(CC)O*; Hexanoyl(6-succinimido-3yl) = O=C1CC([*:1])C(=O)N1CCCCCC(=O)[*:2]; Pen = CC(C)(S)[C@H](N)C(=O)O; Tle = CC(C)(C)[C@H](N)C(=O)O

Turning to `COc1cccc2c1C(=O)c1c(O)c3c(c(O)c1C2=O)C[C@@](O)(C(=O)CO)C[C@@H]3O[C@H]1C[C@H](NC(=O)OCc2ccc(NC(=O)[C@H](CCCNC(N)=O)NC(=O)[C@@H](NC(=O)CCCCCN3C(=O)CC(SC(C)(C)[C@H](NC(C)=O)C(=O)N4CCC[C@H]4C(=O)N[C@@H](CC(C)C)C(=O)N4CCC[C@H]4C(=O)N[C@@H](CCCNC(=N)N)C(=O)N[C@H](C(=O)N[C@@H](CCCNC(=N)N)C(=O)N[C@@H](Cc4ccc(O)cc4)C(=O)O)C(C)(C)C)C3=O)C(C)C)cc2)[C@H](O)[C@H](C)O1` (some centres unmarked) [Compound 89], the IC50 (NTSR1 scrambled compound) amounted to 2.58 µM.
Regarding `CO[C@H]1C(=O)[C@]2(C)[C@@H](OC)C[C@H]3OC[C@@]3(OC(C)=O)[C@H]2[C@H](OC(=O)c2ccccc2)[C@]2(O)C[C@H](OC(=O)[C@H](OC(=O)N(C)CCCNC(=O)CNC(=O)[C@H](CC(C)C)NC(=O)[C@H](Cc3ccccc3)NC(=O)CNC(=O)CCCCCN3C(=O)CC(SCCC(=O)NCCCC[C@H](NC(C)=O)C(=O)N4CCC[C@H]4C(=O)N(C)[C@@H](CCCNC(=N)N)C(=O)N[C@@H](CCCNC(=N)N)C(=O)N4CCC[C@H]4C(=O)N[C@@H](Cc4ccc(O)cc4)C(=O)N[C@H](C(=O)N[C@@H](CC(C)C)C(=O)O)C(C)(C)C)C3=O)[C@@H](NC(=O)OC(C)(C)C)c3ccccc3)C(C)=C1C2(C)C` (some centres unmarked) [Compound 9], the IC50 (NTSR1 targeted compound) was greater than 10 µM.
On to `CC[C@H](C)[C@@H]([C@@H](CC(=O)N1CCC[C@H]1[C@H](OC)[C@@H](C)C(=O)N[C@H](C)[C@@H](O)c1ccccc1)OC)N(C)C(=O)[C@@H](NC(=O)[C@H](C(C)C)N(C)C(=O)OCc1ccc(NC(=O)[C@H](CCCNC(N)=O)NC(=O)[C@@H](NC(=O)CCCCCN2C(=O)CC(SCCC(=O)NCCOCCOCCOCCOCCC(=O)NCCCC[C@H](NC(C)=O)C(=O)N3CCC[C@H]3C(=O)N(C)[C@@H](CCCNC(=N)N)C(=O)N[C@@H](CCCNC(=N)N)C(=O)N3CCC[C@H]3C(=O)N[C@@H](Cc3ccc(O)cc3)C(=O)N[C@H](C(=O)N[C@@H](CC(C)C)C(=O)O)C(C)(C)C)C2=O)C(C)C)cc1)C(C)C` (some centres unmarked) [Compound 61], for which the IC50 (NTSR1 targeted compound) worked out at 0.0337 µM.
Turning to `CCc1c2c(nc3ccc(O)cc13)-c1cc3c(c(=O)n1C2)COC(=O)[C@@]3(CC)OC(=O)CNC(=O)CNC(=O)[C@H](CC(C)C)NC(=O)[C@H](Cc1ccccc1)NC(=O)CNC(=O)CCCCCN1C(=O)CC(SC(C)(C)[C@H](NC(C)=O)C(=O)N2CCC[C@H]2C(=O)N[C@@H](CCCNC(=N)N)C(=O)N[C@@H](CCCNC(=N)N)C(=O)N2CCC[C@H]2C(=O)N[C@@H](Cc2ccc(O)cc2)C(=O)N[C@H](C(=O)N[C@@H](CC(C)C)C(=O)O)C(C)(C)C)C1=O` (stereo partly drawn) [Compound 65] (I: Ac-[Pen]PRRPY[Tle]L-OH / II: GFLGG-{SN38(20-O)}; linker I:1-II:N via Hexanoyl(6-succinimido-3yl)), the IC50 (NTSR1 targeted compound) came to 0.8 µM.
With `COc1cc2cc(c1Cl)N(C)C(=O)C[C@H](OC(=O)[C@H](C)N(C)C(=O)CCSC1CC(=O)N(CCCNC(=O)CNC(=O)[C@H](CC(C)C)NC(=O)[C@H](Cc3ccccc3)NC(=O)CNC(=O)CCCCCN3C(=O)CC(SCCC(=O)NCCOCCOCCOCCOCCOCCOCCOCCOCCC(=O)NCCCC[C@H](NC(C)=O)C(=O)N4CCC[C@H]4C(=O)N[C@@H](CC(C)C)C(=O)N4CCC[C@H]4C(=O)N(C)[C@@H](CCCNC(=N)N)C(=O)N[C@H](C(=O)N[C@@H](CCCNC(=N)N)C(=O)N[C@@H](Cc4ccc(O)cc4)C(=O)O)C(C)(C)C)C3=O)C1=O)[C@]1(C)O[C@H]1[C@H](C)[C@@H]1C[C@@](O)(NC(=O)O1)[C@H](OC)/C=C/C=C(\C)C2` (some centres unmarked) [Compound 85], the IC50 (NTSR1 scrambled compound) was determined as 0.0595 µM.
On the same count and under the same terms, under `CO[C@H]1C(=O)[C@]2(C)[C@@H](OC)C[C@H]3OC[C@@]3(OC(C)=O)[C@H]2[C@H](OC(=O)c2ccccc2)[C@]2(O)C[C@H](OC(=O)[C@H](OC(=O)N(C)CCN(C)C(=O)OCc3ccc(NC(=O)[C@H](CCCNC(N)=O)NC(=O)[C@@H](NC(=O)CCCCCN4C(=O)CC(SC(C)(C)[C@H](NC(C)=O)C(=O)N5CCC[C@H]5C(=O)N[C@@H](CC(C)C)C(=O)N5CCC[C@H]5C(=O)N[C@@H](CCCNC(=N)N)C(=O)N[C@H](C(=O)N[C@@H](CCCNC(=N)N)C(=O)N[C@@H](Cc5ccc(O)cc5)C(=O)O)C(C)(C)C)C4=O)C(C)C)cc3)[C@@H](NC(=O)OC(C)(C)C)c3ccccc3)C(C)=C1C2(C)C` (some centres unmarked) [Compound 73] stands 2.62 µM.
Regarding `CO[C@H]1C(=O)[C@]2(C)[C@@H](OC)C[C@H]3OC[C@@]3(OC(C)=O)[C@H]2[C@H](OC(=O)c2ccccc2)[C@]2(O)C[C@H](OC(=O)[C@H](OC(=O)N(C)CCN(C)C(=O)OCc3ccc(NC(=O)[C@H](CCCNC(N)=O)NC(=O)[C@@H](NC(=O)CCCCCN4C(=O)CC(SC(C)(C)[C@H](NC(C)=O)C(=O)N5CCC[C@H]5C(=O)N[C@@H](CCCNC(=N)N)C(=O)N(C)[C@@H](CCCNC(=N)N)C(=O)N5CCC[C@H]5C(=O)N[C@H](Cc5ccc(O)cc5)C(=O)N[C@H](C(=O)N[C@@H](CC(C)C)C(=O)O)C(C)(C)C)C4=O)C(C)C)cc3)[C@@H](NC(=O)OC(C)(C)C)c3ccccc3)C(C)=C1C2(C)C` (some centres unmarked) [Compound 7], where the note is “NTSR1 targeted compound”, the IC50 was determined as 2 µM.
As to `CO[C@H]1C(=O)[C@]2(C)[C@@H](OC)C[C@H]3OC[C@@]3(OC(C)=O)[C@H]2[C@H](OC(=O)c2ccccc2)[C@]2(O)C[C@H](OC(=O)[C@H](OC(=O)CCCCCN3C(=O)CC(SC(C)(C)[C@H](NC(C)=O)C(=O)N4CCC[C@H]4C(=O)N[C@@H](CC(C)C)C(=O)N4CCC[C@H]4C(=O)N[C@@H](CCCNC(=N)N)C(=O)N[C@H](C(=O)N[C@@H](CCCNC(=N)N)C(=O)N[C@@H](Cc4ccc(O)cc4)C(=O)O)C(C)(C)C)C3=O)[C@@H](NC(=O)OC(C)(C)C)c3ccccc3)C(C)=C1C2(C)C` (some centres unmarked) [Compound 72], the IC50 (NTSR1 scrambled compound) came out at 0.368 µM.
Same read-out and setting: then `CCc1c2c(nc3ccc(O)cc13)-c1cc3c(c(=O)n1C2)COC(=O)[C@@]3(CC)OC(=O)OCc1ccc(NC(=O)[C@H](CCCNC(N)=O)NC(=O)[C@@H](NC(=O)CCCCCN2C(=O)CC(SC(C)(C)[C@H](NC(C)=O)C(=O)N3CCC[C@H]3C(=O)N[C@@H](CC(C)C)C(=O)N3CCC[C@H]3C(=O)N[C@@H](CCCNC(=N)N)C(=O)N[C@H](C(=O)N[C@@H](CCCNC(=N)N)C(=O)N[C@@H](Cc3ccc(O)cc3)C(=O)O)C(C)(C)C)C2=O)C(C)C)cc1` (some centres unmarked) [Compound 98], with 0.061 µM.
Take `CCc1c2c(nc3ccc(O)cc13)-c1cc3c(c(=O)n1C2)COC(=O)[C@@]3(CC)OC(=O)OCCSSC(C)(C)[C@H](NC(C)=O)C(=O)N1CCC[C@H]1C(=O)N[C@@H](CC(C)C)C(=O)N1CCC[C@H]1C(=O)N[C@@H](CCCNC(=N)N)C(=O)N[C@H](C(=O)N[C@@H](CCCNC(=N)N)C(=O)N[C@@H](Cc1ccc(O)cc1)C(=O)O)C(C)(C)C` [Compound 97]: the IC50 (NTSR1 scrambled compound) was 0.122 µM.
Same read-out and setting: under `COc1cc2cc(c1Cl)N(C)C(=O)C[C@H](OC(=O)[C@H](C)N(C)C(=O)CCSC1CC(=O)N(CCCNC(=O)CNC(=O)[C@H](CC(C)C)NC(=O)[C@H](Cc3ccccc3)NC(=O)CNC(=O)CCCCCN3C(=O)CC(SCCC(=O)NCCCC[C@H](NC(C)=O)C(=O)N4CCC[C@H]4C(=O)N[C@@H](CC(C)C)C(=O)N4CCC[C@H]4C(=O)N(C)[C@@H](CCCNC(=N)N)C(=O)N[C@H](C(=O)N[C@@H](CCCNC(=N)N)C(=O)N[C@@H](Cc4ccc(O)cc4)C(=O)O)C(C)(C)C)C3=O)C1=O)[C@]1(C)O[C@H]1[C@H](C)[C@@H]1C[C@@](O)(NC(=O)O1)[C@H](OC)/C=C/C=C(\C)C2` (some centres unmarked) [Compound 82] stands 0.435 µM; under `CC(=O)N[C@H](C(=O)N1CCC[C@H]1C(=O)N[C@@H](CC(C)C)C(=O)N1CCC[C@H]1C(=O)N[C@@H](CCCNC(=N)N)C(=O)N[C@H](C(=O)N[C@@H](CCCNC(=N)N)C(=O)N[C@@H](Cc1ccc(O)cc1)C(=O)O)C(C)(C)C)C(C)(C)SC1CC(=O)N(CCCCCC(=O)N[C@@H](Cc2ccccc2)C(=O)N[C@@H](CC(C)C)B2O[C@@H]3[C@@H]4C[C@H](C[C@]3(C)O2)C4(C)C)C1=O` (some centres unmarked) [Compound 69], greater than 10 µM.
Regarding `CO[C@H]1C(=O)[C@]2(C)[C@@H](OC)C[C@H]3OC[C@@]3(OC(C)=O)[C@H]2[C@H](OC(=O)c2ccccc2)[C@]2(O)C[C@H](OC(=O)[C@H](OC(=O)N(C)CCN(C)C(=O)OCc3ccc(NC(=O)[C@H](CCCNC(N)=O)NC(=O)[C@@H](NC(=O)CCCCCN4C(=O)CC(SC(C)(C)[C@H](NC(C)=O)C(=O)N5CCC[C@H]5C(=O)N[C@@H](CCCNC(=N)N)C(=O)N[C@@H](CCCNC(=N)N)C(=O)N5CCC[C@H]5C(=O)N[C@@H](Cc5ccc(O)cc5)C(=O)N[C@H](C(=O)N[C@@H](CC(C)C)C(=O)O)C(C)(C)C)C4=O)C(C)C)cc3)[C@@H](NC(=O)OC(C)(C)C)c3ccccc3)C(C)=C1C2(C)C` (some centres unmarked) [Compound 5], the IC50 (NTSR1 targeted compound) amounted to 1.7 µM.
Regarding `COc1cc2cc(c1Cl)N(C)C(=O)C[C@H](OC(=O)[C@H](C)N(C)C(=O)CCSC1CC(=O)N(CCCNC(=O)CNC(=O)[C@H](CC(C)C)NC(=O)[C@H](Cc3ccccc3)NC(=O)CNC(=O)CCCCCN3C(=O)CC(SCCC(=O)NCCOCCOCCOCCOCCC(=O)NCCCC[C@H](NC(C)=O)C(=O)N4CCC[C@H]4C(=O)N(C)[C@@H](CCCNC(=N)N)C(=O)N[C@@H](CCCNC(=N)N)C(=O)N4CCC[C@H]4C(=O)N[C@@H](Cc4ccc(O)cc4)C(=O)N[C@H](C(=O)N[C@@H](CC(C)C)C(=O)O)C(C)(C)C)C3=O)C1=O)[C@]1(C)O[C@H]1[C@H](C)[C@@H]1C[C@@](O)(NC(=O)O1)[C@H](OC)/C=C/C=C(\C)C2` (some centres unmarked) [Compound 25], the IC50 (NTSR1 targeted compound) was 0.0022 µM.
